Experimental data from the NIST ThermoML archive (doi:10.1016/j.jct.2007.06.013).

Assays:
[1] = molar heat capacity at constant pressure; conditions: Liquid, calorimeter with the thermal relaxation.
[2] = molar heat capacity at constant pressure; xn = mol fraction of the nth substance listed; conditions: Liquid, calorimeter with the thermal relaxation.

N [ammonia]
[1]
Conditions | molar heat capacity at constant pressure [J/K/mol]
280 K, 1000 kPa | 76.81
280 K, 5000 kPa | 75.62
300 K, 5000 kPa | 76.81
320 K, 5000 kPa | 77.83
360 K, 5000 kPa | 95.2
360 K, 10000 kPa | 92.82
360 K, 15000 kPa | 90.26

N [ammonia] + O
molar heat capacity at constant pressure [J/K/mol], [2]
Conditions | x2 = 0 | x2 = 0.1566 | x2 = 0.1597 | x2 = 0.303 | x2 = 0.3048 | x2 = 0.4956 | x2 = 0.7061 | x2 = 0.8489
280 K, 100 kPa | – | – | – | – | – | – | 68.95 | 70.04
280 K, 1000 kPa | 76.81 | 76.13 | – | 71.92 | – | 76.38 | 69.48 | 70.93
280 K, 5000 kPa | 75.62 | 74.58 | – | 74.17 | – | 76.03 | 72.68 | 72.89
300 K, 100 kPa | – | – | – | – | – | – | – | 73.25
300 K, 1000 kPa | – | 78.19 | – | 77.63 | – | 80.94 | 75.33 | 74.86
300 K, 5000 kPa | 76.81 | 76.13 | – | 77.29 | – | 78.83 | 76.58 | 74.86
320 K, 1000 kPa | – | – | – | – | – | 79.71 | 75.51 | 73.97
320 K, 5000 kPa | 77.83 | 77.85 | – | 80.93 | – | 82.86 | 79.41 | 77.18
360 K, 1000 kPa | – | – | – | – | – | – | 79.77 | 76.11
360 K, 5000 kPa | 95.2 | – | 85.94 | – | 84.92 | 83.21 | 81.72 | 77.54
360 K, 10000 kPa | 92.82 | – | 86.97 | – | 88.21 | 85.32 | 84.55 | 80.04
360 K, 15000 kPa | 90.26 | – | 86.11 | – | 86.65 | 85.84 | 84.73 | 79.69
